From patent US12371454B2, “Cyclic peptide compound having Kras inhibitory action” (priority 2019, dated 2025) come the findings set out here.

Starred links: 1 amine or outer side, 2 acyl side, 3 side chain; linkers in the order of their positions; H or OH if unused. Positions of bridges follow the written chain, without caps; N, C: chain ends. Non-standard residues stand in square brackets, D forms with d. Residues, ends and D or L forms follow the SMILES beside them. *: point of attachment. hPhe(3-Cl-4-CF3) = N[C@@H](CCc1ccc(C(F)(F)F)c(Cl)c1)C(=O)O; X12 = CN([C@@H](Cc1ccc(C(F)(F)F)nc1)C(=O)[*:2])[*:1]; NMePhe(2-CF3) = CN[C@@H](Cc1ccccc1C(F)(F)F)C(=O)O; NMePhe(4-Cl) = CN[C@@H](Cc1ccc(Cl)cc1)C(=O)O; NMePhe(3-F) = CN[C@@H](Cc1cccc(F)c1)C(=O)O; Phe(3-I) = N[C@@H](Cc1cccc(I)c1)C(=O)O; NMeGly(cBu) = CN[C@H](C(=O)O)C1CCC1; NMeY = CN[C@@H](Cc1ccc(O)cc1)C(=O)O; NMeCha = CN[C@@H](CC1CCCCC1)C(=O)O; NMeChg = CN[C@H](C(=O)O)C1CCCCC1; N(CH2CH2)2CF2 = FC1(F)CCN(*)CC1; NMeD = CN[C@@H](CC(=O)O)C(=O)O; NMeL = CN[C@@H](CC(C)C)C(=O)O; NMeV = CN[C@H](C(=O)O)C(C)C; d(β3hA) = C[C@@H](N)CC(=O)O; NMeA = CN[C@@H](C)C(=O)O; NMeAib = CNC(C)(C)C(=O)O; Nle = CCCC[C@H](N)C(=O)O; Piperidide = C1CCN(*)CC1; Pra = C#CC[C@H](N)C(=O)O; Ac5c = NC1(C(=O)O)CCCC1; Aze = O=C(O)[C@@H]1CCN1; NBuGly = CCCCNCC(=O)O; βAla = NCCC(=O)O; CF3 = FC(F)(F)*; Sar = CNCC(=O)O

T1 sequence (P01116 1-188 isoform P01116-2 G12D): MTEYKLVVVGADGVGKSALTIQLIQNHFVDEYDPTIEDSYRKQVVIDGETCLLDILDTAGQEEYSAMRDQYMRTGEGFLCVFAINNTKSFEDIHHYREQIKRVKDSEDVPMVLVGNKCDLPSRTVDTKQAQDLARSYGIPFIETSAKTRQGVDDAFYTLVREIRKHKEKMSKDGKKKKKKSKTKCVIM

The assay addresses T1, Kras and SOS1 (biotin-tagged human Kras loaded with GDP, His-tagged human SOS1) (Homo sapiens, UniProt P01116, G12D).
T1 construct: made in house; host or cells: E. coli (stated for Kras only)
Nature of the assay: Protein-protein interaction inhibition between Kras and SOS1 (KrasGl2D-SOS PPI) using AlphaScreen. In kind it is binding. The settings on record: AlphaScreen; biotin-tagged human Kras loaded with GDP, His-tagged human SOS1; read-out: KRAS G12D-SOS PPI IC50. Put shortly: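 Donor beads (nickel) hold His-SOS1; acceptor beads (streptavidin) hold biotin-Kras bound to GDP. Signal measured at 520-620 nm following 680 nm excitation.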
On the technique in general: Alpha assays give light when donor and acceptor beads are brought close together.
As a reminder, the IC50 is the concentration needed to halve the response being measured. `CCCCN1CC(=O)N(C)[C@@H](CC2CCCCC2)C(=O)N(C)CC(=O)N[C@@H](CCc2ccc(C(F)(F)F)c(Cl)c2)C(=O)N2CCC[C@H]2C(=O)NC2(CCCC2)C(=O)N(C)[C@@H](C(C)C)C(=O)N[C@H](C)CC(=O)N(C)[C@@H](CC(C)C)C(=O)N[C@@H]([C@@H](C)CC)C(=O)N(C)CC1=O` [Compound 1033] (cyclo([Ac5c][NMeV][d(β3hA)][NMeL]I[Sar][NBuGly][NMeCha][Sar][hPhe(3-Cl-4-CF3)]P)): the half-maximal inhibitory concentration (IC50) was found to be 360 nM.
For the molecule `CC[C@H](C)[C@@H]1NC(=O)[C@H](C)N(C)C(=O)C[C@@H](C(=O)N2CCCCC2)N(C)C(=O)[C@H](C(C)C)N(C)C(=O)C2(CCCC2)NC(=O)[C@@H]2CCCN2C(=O)[C@H](CCc2ccc(C(F)(F)F)c(Cl)c2)NC(=O)[C@H]2CCCN2C(=O)[C@H](CC2CCCCC2)N(C)C(=O)CN(C)C(=O)CN(C)C1=O` [Compound 135] ([NMeA]I[Sar][Sar][NMeCha][dP][hPhe(3-Cl-4-CF3)]P[Ac5c][NMeV][NMeD]-Piperidide; lactam N-11), the half-inhibitory concentration (IC50) turned out to be 38 nM.
As to `C#CC[C@@H]1NC(=O)[C@H](Cc2cccc(I)c2)NC(=O)CN(C)C(=O)[C@H](Cc2ccc(OC(F)(F)F)cc2)N(C)C(=O)CN(C)C(=O)CN(C)C(=O)[C@H]([C@@H](C)CC)NC(=O)[C@H](CC(C)C)N(C)C(=O)C[C@@H](C(=O)N2CCCCC2)N(C)C(=O)[C@H](CC(C)C)NC(=O)C(C)(C)N(C)C1=O` [Compound 1219] ([NMeL]I[Sar][Sar][NMeY](CF3)[Sar][Phe(3-I)][Pra][NMeAib]L[NMeD]-Piperidide; lactam N-11), the 50% inhibitory concentration (IC50) was determined as 16 nM.
As for `CCCC[C@@H]1NC(=O)[C@H](Cc2cccc(I)c2)NC(=O)CN(C)C(=O)[C@H](Cc2ccc(Cl)cc2)N(C)C(=O)CN(C)C(=O)CN(C)C(=O)[C@H]([C@@H](C)CC)NC(=O)[C@H](CC(C)C)N(C)C(=O)C[C@@H](C(=O)N2CCCCC2)N(C)C(=O)[C@H](CC(C)C)NC(=O)[C@H](Cc2ccccc2C(F)(F)F)N(C)C1=O` [Compound 813] ([NMeL]I[Sar][Sar][NMePhe(4-Cl)][Sar][Phe(3-I)][Nle][NMePhe(2-CF3)]L[NMeD]-Piperidide; lactam N-11), the IC50 was 69 nM.
Turning to `CC[C@H](C)[C@@H]1NC(=O)[C@H](C2CCC2)N(C)C(=O)C[C@@H](C)NC(=O)[C@H](C(C)C)N(C)C(=O)C2(CCCC2)NC(=O)[C@@H]2CCCN2C(=O)[C@H](CCc2ccc(C(F)(F)F)c(Cl)c2)NC(=O)CN(C)C(=O)[C@H](CC2CCCCC2)N(C)C(=O)[C@@H]2CCN2C(=O)[C@H](C)N(C)C1=O` [Compound 465] (cyclo([Ac5c][NMeV][d(β3hA)][NMeGly(cBu)]I[NMeA][Aze][NMeCha][Sar][hPhe(3-Cl-4-CF3)]P)), the half-maximal inhibitory concentration (IC50) is 55 nM.
The figure for `CC[C@H](C)[C@@H]1NC(=O)[C@H](C)N(C)C(=O)C[C@@H](C)NC(=O)[C@H](C(C)C)N(C)C(=O)C2(CCCC2)NC(=O)[C@@H]2CCCN2C(=O)[C@H](CCc2ccc(C(F)(F)F)c(Cl)c2)NC(=O)[C@H]2CCCN2C(=O)[C@H](CC2CCCCC2)N(C)C(=O)[C@@H]2CCN2C(=O)CN(C)C1=O` [Compound 77] (cyclo([Ac5c][NMeV][d(β3hA)][NMeA]I[Sar][Aze][NMeCha][dP][hPhe(3-Cl-4-CF3)]P)) is 100 nM; for `CC[C@H](C)[C@@H]1NC(=O)[C@H](CC(C)C)N(C)C(=O)C[C@@H](C(=O)N2CCCCC2)N(C)C(=O)[C@H](C2CCCCC2)N(C)C(=O)C2(CCCC2)NC(=O)[C@H](Cc2ccc(C(F)(F)F)nc2)N(C)C(=O)[C@H](CCc2ccc(C(F)(F)F)c(Cl)c2)NC(=O)CN(C)C(=O)[C@H](CC2CCCCC2)N(C)C(=O)[C@@H]2CCN2C(=O)[C@H](C)N(C)C1=O` [Compound 479] ([NMeL]I[NMeA][Aze][NMeCha][Sar][hPhe(3-Cl-4-CF3)][X12][Ac5c][NMeChg][NMeD]-Piperidide; lactam N-11) it is 300 nM.
As to `CC[C@H](C)[C@@H]1NC(=O)CCNC(=O)[C@H](Cc2cccc(F)c2)N(C)C(=O)[C@H](C2CCCCC2)N(C)C(=O)C2(CCCC2)NC(=O)[C@@H]2CCCN2C(=O)[C@H](CCc2ccc(C(F)(F)F)c(Cl)c2)NC(=O)CN(C)C(=O)[C@H](CC2CCCCC2)N(C)C(=O)CN(C)C(=O)CN(C)C1=O` [Compound 237] (cyclo([Ac5c][NMeChg][NMePhe(3-F)][βAla]I[Sar][Sar][NMeCha][Sar][hPhe(3-Cl-4-CF3)]P)), the IC50 came out at 42 nM.
The figure for `CC[C@H](C)[C@@H]1NC(=O)[C@H](CC(C)C)N(C)C(=O)C[C@@H](C(=O)N2CCCCC2)N(C)C(=O)[C@H](C(C)C)N(C)C(=O)[C@@H](C)NC(=O)[C@H](CC(=O)N2CCC(F)(F)CC2)N(C)C(=O)[C@H](CCc2ccc(C(F)(F)F)c(Cl)c2)NC(=O)CN(C)C(=O)[C@H](CC2CCCCC2)N(C)C(=O)CN(C)C(=O)CN(C)C1=O` [Compound 493] ([NMeL]I[Sar][Sar][NMeCha][Sar][hPhe(3-Cl-4-CF3)][NMeD](N(CH2CH2)2CF2)[dA][NMeV][NMeD]-Piperidide; lactam N-11) is 300 nM.
